Read-outs that look alike come from different tables or passages of the source.
Columns and labels:
AML-3 leukemic cell line [1] = assay: MTT assay; assay type: cell-based, human
Protocol: (§1) All cell lines were assayed as asynchronously growing cells. Leukemic cell lines, OCI-AML-2, OCI-AML-3 (referred to hereafter as AML-2 and AML-3, respectively), NB-4, KK, B1, G2, and W1 were cultured in alpha-minimal essential medium (α-MEM) (Princess Margaret Hospital Media Services) supplemented with 10% fetal bovine serum (FBS) (Sigma, St. Louis, Mo.). Non-transformed, diploid fibroblast lines WI38 and IMR90, were cultured in α-MEM and MEM F-15, respectively supplemented with 10% FBS. Media for IMR90 cells was also supplemented with 1.5 g/L bicarbonate and 1 mM pyruvate. Breast tumour cell lines, MDA-231, SK-BR-3, MCF-7, ZR-751, and melanoma tumour cell lines, WM9, WM983, WM793, 1232, were grown in α-MEM supplemented with 10% fetal bovine serum. Prostate tumour cell lines, DU145 and PC-3, were grown in RPMI 1640 media supplemented with 10% FBS. All cell lines were cultured in the presence of penicillin/streptomycin. Mononucleated cells were isolated from normal bone marrow using Ficoll hypaque and then T-cell depleted. T-cell depletion was performed by incubating the mononucleated bone marrow cells in α-MEM at a concentration of 2×10^7 cells/mL with 10% absor FBS and 10% (v/v) sheep red blood cells for 4 to 16 h. Absor FBS was prepared beforehand by heating FBS at 56° C. for 1 h, incubating with sheep red blood cells at 0.5% (v/v) for 1 h and then filtering the FBS with a […]. The T-cell depleted, mononucleated cells were recovered using Ficoll hypaque and were maintained in α-MEM supplemented with 20% FBS and 10% 5637 ? nditioned media. 5637 conditioned media ? s previously harvested from confluent 5637 cells after a 3 day incubation. Normal bone marrow from bone marrow transplant donor was collected following informed consent according to institutional guidelines.
(§2) Approximately 20 mg of each compound was dissolved in 5 mL of ACS grade acetone (Sigma) using a 5 mL volumetric flask. Stock solutions of the compounds were stored in the dark at −20° C. Compounds were diluted prior to each experiment.
(§3) Adherent cells were seeded at 67×10^3 cells/mL in a 96 well plate (Falcon, Mississauga, Ontario) the day prior to exposure to compound. Suspension cells were seeded at 27×10^4 cells/mL in a 96 well plate the day of exposure to compound. Mononucleated, T-cell depleted normal bone marrow cells were seeded at 67×10^4 cells/mL in a 96 well plate the day of exposure to compound. Compounds and solvent control were added to cells and assayed in triplicate or sextuplet. Following 48 h of incubation at 37° C. with 5% CO2, 40 μL of a 5 mg/mL solution of 3-[4,5-dimethylthiazol-2-yl]-2,5-diphenyltetrazolium bromide (MTT) substrate (Sigma) in Dulbecco's phosphate-buffered saline (D-PBS) was added. After 4 h of incubation at 37° C. with 5% CO2, the resulting violet formazan precipitate was solubilized by the addition of 80 μL of a 0.01 M HCI, 10% sodium dodecyl sulfate (SDS; Sigma) solution overnight at 37° C. with 5% CO2. The plates were then analyzed using the BioRad Benchmark Microplate Reader (BioRad Laboratories, Hercules, Calif.) at 570 nm to determine the optical density of the samples. MTT data was analyzed using Prism 3.0 (GraphPad Software, Inc., San Diego, Calif.) by the Chou-Talalay method. MTT graphs shown are a representative experiment.
(§4) Adherent cells were seeded at 67×10^3 cells/mL in a 96 well plate (Falcon, Mississauga, Ontario) the day prior to exposure to compound. Suspension cells were seeded at 27×10^4 cells/mL in a 96 well plate the day of exposure to compound. Mononucleated, T-cell depleted normal bone marrow cells were seeded at 67×10^4 cells/mL in a 96 well plate the day of exposure to compound. Compounds and solvent control were added to cells and assayed in triplicate or sextuplet. […]

KK leukemic cell line = assay: MTT assay; assay type: cell-based, human; details: 48 h, read-out: MTT50
Protocol: as §1, §2, §3, §4

[2] = test system: WI38 non-transformed diploid fibroblasts; assay: MTT assay; assay type: cell-based, human; details: for IC50: read-out: MTT50; for Viability of non-transformed human WI38 fibroblasts following exposure: in words
Protocol: as §1, §2, §3, §4

[3] = test system: Normal bone marrow (mononucleated, T-cell depleted); assay: MTT assay; assay type: cell-based; details: 48 h, read-out: MTT50
Protocol: as §1, §2, §3, §4

AML-3 leukemic cell line [4] = assay: Fixed propidium iodide staining, flow cytometry; assay type: cell-based, human; details: 48 h
Protocol: (§5) Adherent cell lines were plated at 35×10^4 cells/60 cm^2 dish the day before exposure to compound. Suspension cells were seeded at 25×10^4 cells/mL in a 6 well dish (Falcon) the day of exposure to compound. Mononucleated, T-cell depleted normal bone marrow cells were seeded at 50×10^4 cells/mL in a 6 well dish the day of exposure to compound. Cells were exposed to solvent control or approximate MTT50 and MTT30 concentrations of the compound. After 48 h of exposure to the compound, cells were harvested, fixed in 80% ethanol for 1 h on ice and labeled with 50 μg/mL propidium iodide (Sigma). Approximately 10^6 cells were analyzed using a XL-MCL flow cytometer (Coulter Corporation, Miami, Fla.) and a FACScalibar cytometer (Becton Dickinson, San Jose, Calif.). Profiles shown are a representative.
as §5, with “cm2” for “cm^2”, “concentrations.” for “concentrations of the compound.”, “representative. Cell viability counts and Pi staining were performed as previously described (Dimitroulakos, J, Nohynek, D, Backway, K L, Hedley, D W, Yeger, H, Freedman, M H, Minden, M D and Penn, L Z: Increased sensitivity of acute myeloid leukemias to lovastatin-induced apoptosis: A potential therapeutic approach. Blood 93: 1308-18, 1999).” for “representative.”

[5] = Homo sapiens, AML3, 48 h, AML-3, read-out: MTT50
[6] = Homo sapiens, WI-38, 48 h, WI38 (normal), 48 h

| IC50 (AML-3 leukemic cell line [1]; AML-3, 48 h, read-out: MTT50) | IC50 (KK leukemic cell line; KK) | IC50 (AML-3 leukemic cell line [1]; [5]) | IC50 (KK leukemic cell line; Homo sapiens, KK) | Compound | IC50 ([2]; WI38 (normal), 48 h) | Viability of non-transformed human WI38 fibroblasts following exposure [2] | IC50 ([3]; Normal bone marrow) | IC50 [2, 6] | IC50 ([3]; T-cell, Normal bone marrow) | further results |
| --- | --- | --- | --- | --- | --- | --- | --- | --- | --- | --- |
| > 134 µM | > 134 µM | – | – | CSCSCS(C)(=O)=O [B] | > 134 µM | not affected | > 134 µM | – | – | % G2/M (Fixed PI) (AML-3 leukemic cell line [4]; dose 107 uM (20 ug/mL)): 13.4%; % pre-G1 (Fixed PI) (AML-3 leukemic cell line [4]; dose 107 uM (20 ug/mL)): 0.3% |
| > 265 µM | > 265 µM | – | – | CS(C)(=O)=O [Compound A, dimethyl sulfone] | > 265 µM | not affected | > 265 µM | – | – | % pre-G1 (Fixed PI) (AML-3 leukemic cell line [4]; dose 212 uM (20 ug/mL)): 0.1% |
| 16.9 µM | 31.4 µM | – | – | CSSCS(=O)(=O)c1ccc(C)cc1 [Compound C, α-p-toluenesulfonyl dimethyl disulphide] | 89 µM | decreased | 20.9 µM | – | – | % G2/M (Fixed PI) (AML-3 leukemic cell line [4]; dose 20.2 uM (10 ug/mL)): 11.1%; % pre-G1 (Fixed PI) (AML-3 leukemic cell line [4]; dose 20.2 uM (10 ug/mL)): 10.7% |
| – | – | – | – | CSCSSC [Compound N, 2,3,5-trithiahexane] | – | – | – | – | – | IC50 (AML-3 leukemic cell line [1]; Homo sapiens, AML3, 48 h, read-out: MTT50, AML-3): 51.1 µM; IC50 (AML-3 leukemic cell line [1]; read-out: MTT50, AML-3, 48 h): 73.4 µM; IC50 (KK leukemic cell line; Homo sapiens): 65.2 µM; IC50 ([2]; Homo sapiens, WI-38, 48 h): > 100 µM; IC50 ([3]; T-cell): > 100 µM; % G2 increase (Fixed PI) (AML-3 leukemic cell line [4]; dose 50 uM): +17%; % pre-G1 (Fixed PI) (AML-3 leukemic cell line [4]; dose 50 uM): 17%; % G2 increase (Fixed PI) (AML-3 leukemic cell line [4]; dose 150 uM): +14%; % pre-G1 (Fixed PI) (AML-3 leukemic cell line [4]; dose 150 uM): 35% |
| – | – | 51.1 µM | 65.2 µM | CSSCC(=O)c1ccccc1 [Compound P, phenacyl methyl disulphide] | – | – | – | > 100 µM | > 100 µM | % pre-G1 (Fixed PI) (AML-3 leukemic cell line [4]; dose 50 uM): 7%; % pre-G1 (Fixed PI) (AML-3 leukemic cell line [4]; dose 150 uM): 66% |
| – | – | 22.5 µM | 23.7 µM | CCC(=O)OCSSc1ccccc1 [Compound Q, 1-phenyl-1,2-dithiapropyl propionate] | – | – | – | > 100 µM | > 100 µM | % G2 increase (Fixed PI) (AML-3 leukemic cell line [4]; dose 20 uM): −5%; % pre-G1 (Fixed PI) (AML-3 leukemic cell line [4]; dose 20 uM): 10%; % G2 increase (Fixed PI) (AML-3 leukemic cell line [4]; dose 40 uM): −9%; % pre-G1 (Fixed PI) (AML-3 leukemic cell line [4]; dose 40 uM): 42% |
| – | – | 10.1 µM | 12.8 µM | c1ccc(SSc2ccccc2)cc1 [D, diphenyl disulphide] | – | decreased | – | 45.3 µM | 19.1 µM | % pre-G1 (Fixed PI) (AML-3 leukemic cell line [4]; dose 91.6 uM (20 ug/mL)): 24.1% |
| – | – | 15.4 µM | 17.5 µM | CS(=O)(=O)CSSc1ccccc1 [E, 5-phenyl-2,4,5-trithiapentane 2,2-dioxide] | – | decreased | – | 45.2 µM | 21.9 µM | % pre-G1 (Fixed PI) (AML-3 leukemic cell line [4]; dose 85.3 uM (20 ug/mL)): 24.5% |
| 44 µM | 93.4 µM | – | – | CSSCCS(C)(=O)=O [F, 2,3,6-trithiaheptane 6,6,-dioxide] | > 100 µM | not affected | 116 µM | – | – | % G2/M (Fixed PI) (AML-3 leukemic cell line [4]; dose 45.8 uM (10 ug/mL)): 34.1%; % pre-G1 (Fixed PI) (AML-3 leukemic cell line [4]; dose 45.8 uM (10 ug/mL)): 5.1% |
| – | – | 114 µM | 114 µM | CS(=O)(=O)CSCS(C)(=O)=O [G, 2,4,6-trithiaheptane 2,2,6,6-tetraoxide] | – | not affected | – | 114 µM | 114 µM | % G2/M (Fixed PI) (AML-3 leukemic cell line [4]; dose 45.8 uM (10 ug/mL)): 13.5%; % pre-G1 (Fixed PI) (AML-3 leukemic cell line [4]; dose 45.8 uM (10 ug/mL)): 0.3% |
| 93.4 µM | 110 µM | – | – | COC(=O)CSSC [H, methyl 3,4-dithiopentanoate] | > 164 µM | not affected | 366 µM | – | – | % pre-G1 (Fixed PI) (AML-3 leukemic cell line [4]; dose 65.7 uM (10 ug/mL)): 3.6% |
| – | – | 31.5 µM | 31.5 µM | CSSCOC(C)=O [I, 2,3-dithiabutyl acetate] | – | decreased | – | 76.9 µM | 32.8 µM | % pre-G1 (Fixed PI) (AML-3 leukemic cell line [4]; dose 232.8 uM (5 ug/mL)): 23.6% |
| 8.53 µM | – | 15 µM | 10.5 µM | CSSc1ccc([N+](=O)[O-])cc1 [M, methyl p-nitrophenyl disulphide] | 17.4 µM | – | – | 13.8 µM | 22.6 µM | % pre-G1 (Fixed PI) (AML-3 leukemic cell line [4]; dose 20 uM): 34%; % pre-G1 (Fixed PI) (AML-3 leukemic cell line [4]; dose 40 uM): 56% |
